Here are results for 4 compounds from patent US20170037480A1, “HSF1 IN TUMOR STROMA” (Whitehead Institute for Biomedical Research, priority 2014, published 2017).

“Also recorded” adds a separate entry of the source.

Test [1] relates to HSF1. As to conditions: recent chemical screening effort; cited from earlier work.
The test system of test [2] is HSF1. Put plainly: Effect of RHT on expression of HSF1 stromal signature genes in Hsf1+/+ versus Hsf1-/- MEFs. The format is cell-based, mouse. As to conditions: reduced in treated Hsf1+/+ MEFs but not in Hsf1-/- MEFs. The source says: A combination of experimental and bioinformatic approaches was used to define a set of HSF1-regulated genes of particular use for assessing the level of HSF1 activity in tumor-associated stromal cells for purposes of cancer classification, diagnosis, prognosis, treatment-specific prediction, and treatment selection. The pipeline started with the Group 1 and Group 4 gene lists described above. As described above, these 871 genes have increased expression in Hsf1+/+ versus Hsf1−/−MEFs. These 871 genes map to 562 genes in the Finak, G. et al. dataset discussed above (GEO (GSE9014)). […] Its structure is depicted below.
The 562 genes that mapped to genes in the Finak dataset were tested to determine the effect of RHT on their expression in Hsf1+/+MEFs versus […] MEFs. […] A filter was applied to these genes to identify those that were differentially expressed in tumors in the Finak dataset with poor versus good outcomes.

Test [3] relates to D2A1 cells co-cultured with Hsf1 null MEFs. Put plainly: Co-culture of dsRed D2A1 cancer cells on Hsf1 null MEF feeder layer, cancer cells counted by flow cytometry. The format is cell-based, mouse. The settings on record: for cancer cell growth (percentage of cancer cells) in co-culture with Hsf1 null MEFs on addition of recombinant proteins: 10 ng/ml TGFβ1, 100 ng/ml SDF1, added once, 96 h. The procedure: (§1) (A) The relative expression of Sdf1, Tgfβ1 and Tgfβ2 in WT or Hsf1 null immortalized MEFs was measured by quantitative PCR. mRNA expression levels were normalized to the house keeping gene Gapdh. The mean of 3 independent experiments is shown. Error bars, SEM. *p<0.05, **p<0.01. (B-C) WT or Hsf1 null immortalized MEFs were plated and treated with mitomycin C as in FIG. 3A. D2A1 cells marked with dsRed were then seeded on top of the MEFs in the presence or absence of 10 ng/ml TGFβ1 and 100 ng/ml SDF1. After 96 h, cells were either visualized by fluorescent microscopy (B) or trypsinized and quantitated by flow cytometry (C). The percentage of cancer cells in co-culture is presented. The experiment was repeated 3 times, in triplicate. Representative results of one experiment are shown as the mean+/−SEM. *p<0.05. (D) Immortalized WT or Hsf1 null mitomycin-treated MEFs were pretreated, or not, with LY2109761 for 30 minutes before D2A1 cells marked with dsRed were seeded on top. Cultures were continued for 72 h, with daily supplementation of LY2109761 (or not, as control), and then analyzed as in (C). The experiment was repeated 3 times, in triplicates. Results are expressed as the mean relative number of cancer cells, normalized to the non-drug treated co-cultures with WT MEFs. […] (E) Immortalized WT MEFs stably expressing shRNA hairpins targeting Smad2 (shSmad2) or GFP (shGFP) were co-cultured with D2A1 cells, treated and analyzed as in (C). […] IPs were analyzed by qPCR with primers targeting potential heat shock elements in mouse Sdf1 and Tgfβ2. […]
Figs. S4A-S4F show additional results. […] The relative expression of Sdf1, Tgfβ1 and Tgfβ2 in three separate sets of WT or Hsf1 null MEFs (each derived from a different pregnancy) was measured by quantitative PCR. mRNA expression levels were normalized to the house keeping gene Gapdh. […] After 96 h, cells were trypsinized and quantitated by flow cytometry. […] Relative cell number was measured by luminescence using Cell-Titer Glo reagent (Promega). […] After growth for 96 h, cells were trypsinized and quantitated by flow cytometry. […]
On the technique in general: In flow cytometry, cells or beads pass a laser one at a time.

In test [4] the test system is D2A1 cells co-cultured with WT MEFs. Briefly: Co-culture of dsRed D2A1 cancer cells on WT MEF feeder layer, cancer cells counted by flow cytometry. The format is cell-based, mouse. The settings on record: LY2109761, MEFs pretreated 30 minutes, 72 h, daily supplementation; p=0.008. As for the experimental part: as §1, with “(D) Immortalized WT or Hsf1 null mitomycin-treated MEFs were pretreated, or not, with LY2109761 for 30 minutes before D2A1 cells marked with dsRed were seeded on top.” left out, “The experiment was repeated 3 times, in triplicates.” left out

For another test, the system named is D2A1 cancer cells. Put plainly: Growth of D2A1 cancer cells grown alone (no MEFs), Cell-Titer Glo luminescence. In kind it is cell-based, mouse. The settings on record: LY2109761 1 μM, 72 h, daily re-addition of inhibitor. The procedure: Figs. S4A-S4F show additional results. (A) Tgfβ and Sdf1 mRNA levels are regulated by HSF1 in primary MEFs. The relative expression of Sdf1, Tgfβ1 and Tgfβ2 in three separate sets of WT or Hsf1 null MEFs (each derived from a different pregnancy) was measured by quantitative PCR. mRNA expression levels were normalized to the house keeping gene Gapdh. The experiment was repeated 3 times (each time with a different set of primary MEFs), in triplicate. Representative results are shown as the mean+/−SEM. *p<0.05, **p<0.01, ***p<0.001. […] WT or Hsf1 null immortalized MEFs were plated and treated with mitomycin C. D2A1 cells marked with dsRed were then seeded on top of the MEFs in the presence or absence of 10 ng/ml TGFβ1, 100 ng/ml SDF1 or a combination of both. After 96 h, cells were trypsinized and quantitated by flow cytometry. The percentage of cancer cells in the co-culture is presented. The experiment was repeated 3 times, in triplicate. […] Relative cell number was measured by luminescence using Cell-Titer Glo reagent (Promega). […] After growth for 96 h, cells were trypsinized and quantitated by flow cytometry. […] Relative levels of SMAD2 in WT immortalized MEFs (left two panels) or D2A1 cells (right two panels) were measured by immunoblotting lysates prepared from cells stably expressing shRNA hairpins targeting Smad2 (shSmad2) or GFP (shGFP). […]

As for `COc1ccc([C@@]23Oc4cc(OC)cc(OC)c4[C@]2(O)[C@H](O)[C@H](C(=O)N(C)OC)[C@H]3c2ccccc2)cc1` [Rohinitib], in the test with HSF1 [1], the “inhibition of HSF1 activity” value is “potent inhibitor”. In the test on HSF1 [2], the “number of genes (of 562 tested) whose expression was suppressed in an HSF1-dependent fashion” value was determined as 95. With `c1ccc(-c2nn3c(c2-c2ccnc4cc(OCCN5CCOCC5)ccc24)CCC3)nc1` [LY2109761], the “growth of D2A1 cancer cells in co-culture with Hsf1 null MEFs (relative number of cancer cells)” value in test [3] (LY2109761, MEFs pretreated 30 minutes, 72 h, daily supplementation, p=0.1) is listed as “A smaller effect, that did not reach statistical significance”. Also, the “growth of D2A1 cancer cells in co-culture with WT MEFs (relative number of cancer cells)” value in test [4] is “significantly reduce their growth”. In addition, the “growth or survival of D2A1 cancer cells grown alone (relative cell number)” value in the test on D2A1 cancer cells is on record as “did not affect; also recorded: does not directly inhibit”. For the compound “SDF1: purified recombinant protein (R&D systems, 460-SD-010)”, the “cancer cell growth (percentage of cancer cells) in co-culture with Hsf1 null MEFs on addition of recombinant proteins” value in test [3] is recorded as “Partial effects, that did not reach statistical significance”. On to “TGFβ1: purified recombinant protein (R&D systems, 240-B-002)”, for which the “cancer cell growth (percentage of cancer cells) in co-culture with Hsf1 null MEFs on addition of recombinant proteins” value in test [3] was “Partial effects, that did not reach statistical significance”.
